Test results published in patent publication EP0522596A1, “Method and means for inducing constriction of the pupil in the eye” (Kabi Pharmacia AB, priority 1989, dated 1993).
Entries after “also recorded” stand apart in the source; their conditions may differ. Ends that are not written are not given here.

How the values were obtained:
pupil [1] = test: Capsaicin-induced miosis in monkeys with and without Lorglumide pretreatment; type: in vivo, Macaca fascicularis
Method: Example 7: Monkeys (Macaca fascicularis) were anesthesized, pretreated with atropine and cannulated as described in Example 1. Then 10 µl of a 1% solution of Capsaicin was injected into the anterior chamber; the diameter of the pupil was measured 15 minutes later. The decrease in pupil size obtained with this dose varied from 0 to 1.5 mm.

pupil [2] = test: Antagonism of the CCK-8 miosis dose-response in the monkey eye in vivo; design: species or system monkeys; conditions: 0.75 µg of Lorglumide injected into the anterior chamber
Method: Example 5: Dose-response determination of CCK-8 was carried out on one eye of atropine treated, pentobarbital anesthesized monkeys in accordance with the description in Example 1. Thereafter 0.75µg of Lorglumide in 15µl of isotonic saline was injected into the anterior chamber of the other eye. The CCK-8 dose-response relationship was then determined in the same way as in the case of the first eye.

[3] = tested on: receptor present on the sphincter muscle; type: in vivo; conditions: nerve blockade with tetrodotoxin; pretreatment with indomethacin
[4] = tested on: sphincter muscle of the iris; conditions: injected into the anterior chamber; Bill et al., 1979; cited from earlier work
pupil [5] = conditions: primates; Mandahl et al., 1980; cited from earlier work

## CCCCCN(CCCCC)C(=O)C(CCC(=O)O)NC(=O)c1ccc(Cl)c(Cl)c1 (racemic) [Lorglumide, D,L-4-(3,4-dichlorobenzoylamino)-5-(dipentylamino)-5-oxo-pentanoic acid]
Pupil [1]; pretreatment with 7.5 µg Lorglumide in 15 µl, capsaicin-sensitive animals
  effect on the pupil response to Capsaicin: decreased the response to Capsaicin; also recorded: most of the effect on the pupil was eliminated
Pupil [2]
  shift of the CCK-8 dose-response curve to the right: more than one order of magnitude

## COc1cc(CNC(=O)CCCCC=CC(C)C)ccc1O [Capsaicin, 8-methyl-N-vanillyl-6-nonenamide]
Pupil [1]; cynomolgus monkey, in vivo
  miotic response in monkeys: less consistent and less pronounced as compared to the response in rabbits

## COc1ccc2c(c1)c(CC(=O)O)c(C)n2C(=O)c1ccc(Cl)cc1 [indomethacin]
[3]
  effect of pretreatment on the miosis response to CCK: do not cause a decrease in the miosis response

## substance P (RPKPQQFFGLM; ends and bridges not checked; UniProt P20366 58-68, looked up) [neuropeptide released in the eye on irritation; synthetically produced]
[4]
  response of the sphincter muscle of the iris: substantial contractive response
Pupil [5]
  pupillary response to substance P: totally absent
